Measurements: article PMC10699557, “A recombinant approach for stapled peptide discovery yields inhibitors of the RAD51 recombinase” (Chemical Science, 2023)
Like-named read-outs stand apart in the source and are kept apart here. Numbered stars: 1 amine (or outer) side, 2 acyl side, 3 side chain; on linkers, the order of the positions; unused ones are H or OH. Bridge positions count the residues as written; N and C are the ends. Ends that are not written are not given here. Peptide text beside a SMILES is read from it. X2 = CN(CC(=O)O)c1nc(CC[*:1])nc(CC[*:2])n1; X1 = Nc1nc(CC[*:1])cc(CC[*:2])n1

Experiments:
[1] = target: monomeric version of RAD51 (HumRadA22) (Pyrococcus furiosus, UniProt O74036); experiment: Fluorescence polarisation (FP) competition assay: displacement of fluorescein-labelled BRC4 repeat; assay type: binding, archaeal RadA mutant with human Rad51 surface residues; conditions: 100 nM HumRadA22, 10 nM BRC4-fluorescein, KD calculated from IC50, single titration, three technical replicates per point
Text: We prepared all stapled peptides from small-scale bacterial cultures as GB1/C-His8 fusions and cyclised them with the DVT linker. For peptides SP10, SP11, SP12 and SP15, correct stapling was confirmed by MS, showing a similar composition to SP2 (Fig. S15–S18 ^†). Thus, we confirm that the pseudo-dilution approach is robust in yielding almost exclusively the cyclised product, irrespective of whether a helical or non-helical motif is being constrained. To examine the effect of introducing a covalent staple on affinity, a mock reaction was done in parallel for each peptide by splitting the IMAC elution into two halves and adding DMSO to the mock control instead of the linker. TCEP (500 μM) was included in the mock reaction to maintain the peptide in linear form by preventing disulfide formation. The peptides were tested in a fluorescence polarisation (FP) assay monitoring the displacement of a fluorescently-labelled BRC4 repeat from a monomeric version of RAD51 (HumRadA22), as reported previously.[25] […]
Fluorescence polarisation competition assay
FP competition assay was a modified version of a protocol described previously. Fluorescein-labelled HsBRC4 probe for this assay was kindly provided by Dr Laurens Lindenburg (Hollfelder group, Department of Biochemistry, University of Cambridge). Black 384-well flat-bottom microplates (Corning, 3821) were used with a 40 μl final reaction volume in all measurements. Following buffer conditions were used: 20 mM CHES pH 9.5, 150 mM NaCl, 0.1% BSA, 0.1% Tween-20. Each reaction contained 100 nM HumRadA22 and 10 nM BRC4-fluorescein. Two-fold serial dilutions of stapled peptides were added to the reactions. A free probe control reaction containing only 10 nM BRC4-fluorescein was used to calibrate gain and focal height. FP measurements were performed on Pherastar FX or Clariostar Plus (BMG Labtech) plate readers equipped with an FP 485-520-520 optic modules. Binding curves were fitted using the four-parameter logistic model with a variable Hill slope using Prism software (Graphpad). Regression fitting was performed using the least squares optimisation algorithm.
KD values were estimated from the fitted IC 50 parameters using a previously reported

[2] = target: HumRadA22 (Pyrococcus furiosus, UniProt O74036); experiment: Isothermal titration calorimetry (ITC) of peptide binding; parameters: species or system archaeal RadA mutant with human Rad51 surface residues; conditions: read-out: ITC KD; free peptides; 20 mM CHES pH 9.5, 150 mM NaCl, 0.1% Tween-20; 25°C; single-site binding model
Experimental: We then evaluated the binding of free peptides to HumRadA22 using FP competition assay and isothermal titration calorimetry (Table 1 and Fig. 3B and C). […] All three peptides SP2, SP24 and SP30 bound with similar low-nanomolar affinities in ITC, and the binding appears to be slightly weaker relative to the linear BRC8-2 template (Fig. 3C).
(§1) Isothermal titration calorimetry
(§2) Peptides were resuspended in MilliQ water to 10 times the desired final concentration.
This was then diluted 10x with the ITC buffer to obtain the final titrant solution (20 mM CHES pH 9.5, 150 mM NaCl, 0.1% Tween-20). HumRadA22 was buffer-exchanged on a NAP-5 desalting column (Cytiva) into ITC buffer and protein concentration was adjusted to 10:9 of the desired final value. […]
(§3) Dried peptides were dissolved in MilliQ water to 0.3 mg/ml, and then two-fold diluted in 20 mM sodium phosphate, pH 7.4, giving a final solution of 0.15 mg/ml peptide in 10 mM sodium phosphate. CD spectra of selected peptides were recorded on an AVIV 410 circular dichroism spectropolarimeter using a 1 mm path length quartz cuvette. […]
(§4) The ability of linear and stapled BRC repeat peptides to dissociate RAD51-ssDNA nucleofilament was evaluated using an electrophoretic mobility shift assay (EMSA). […]

[3] = system: RAD51:dT60 nucleoprotein filament (full-length human RAD51); experiment: Electrophoretic mobility shift assay (EMSA) of nucleoprotein filament disruption; assay type: biochemical; conditions: 5 μM full-length human RAD51, 100 nM FAM-dT60, varying peptide concentrations; 50 mM HEPES pH 7.4, 1 mM ATP
Experimental: We evaluated the effect of stapled peptides SP2, SP24 and SP30 on the nucleoprotein filament using electrophoretic mobility shift assay (EMSA, Fig. 3D). A fluorescently labelled dT60 oligonucleotide was incubated with full-length RAD51, after which the peptides were added at different concentrations before separating the products on a polyacrylamide gel.
as §1, §2
This was then diluted 10x with the ITC buffer to obtain the final titrant solution (20 mM CHES pH 9.5, 150 mM NaCl, 0.1% Tween-20). HumRadA22 was buffer-exchanged on a NAP-5 desalting column (Cytiva) into ITC buffer and protein concentration was adjusted to 10:9 of the desired final value. One ninth volume of MilliQ water was added to the solution to bring the protein concentration to the desired final value, while maintaining identical buffer:MilliQ volume proportions in both the syringe and the cell. ITC was carried out using a Microcal ITC200 or Malvern PEAQ ITC instruments at 25°C with a 5.00 μCal reference power DP value, stirring speed of 500-750 rpm, 2 sec filter period. Injection spacing, speed and volume, cell/syringe concentrations as well as the number of injections were adjusted for each peptide and its binding properties. ITC data were fitted using a single-site binding model using the Microcal ITC data analysis program in the Origin 7.0 package. Data points affected by baseline spikes were omitted from the analysis.
Circular dichroism spectroscopy
as §3, §4

[4] = stapled product (linker DVT or DVP as in Table 1), 20 mM CHES pH 9.5, 150 mM NaCl, 0.1% BSA, 0.1% Tween-20, read-out: FP competition KD, nM, Stapled
[5] = unstapled linear form, mock reaction with DMSO instead of linker plus TCEP, 20 mM CHES pH 9.5, read-out: FP competition KD, nM, Unstapled

Compound | Kd ([1]; read-out: FP competition KD, nM, Stapled, stapled product (linker DVT or DVP as in Table 1), 20 mM CHES pH 9.5, 150 mM NaCl, 0.1% BSA, 0.1% Tween-20) [nM] | Kd [2] [nM] | Depolymerisation of RAD51 from single-stranded DNA (EMSA) [3] | Kd [1, 4] [nM] | Kd [1, 5] [nM]
CC(C)C[C@@H]1NC(=O)[C@H](C)NC(=O)[C@H](CCC(N)=O)NC(=O)[C@@H](NC(=O)[C@H](CO)NC(=O)[C@@H](NC(=O)[C@H](CC(N)=O)NC(=O)[C@H](CC(C)C)NC(=O)[C@H](CCCCN)NC(=O)[C@H](CCCCN)NC(=O)CNC(=O)[C@H](CO)NC(=O)[C@H](C)NC(=O)[C@@H](NC(=O)[C@H](CO)NC(=O)[C@H](Cc2ccccc2)NC(=O)CNC(=O)[C@H](CO)NC(=O)CN)[C@@H](C)O)C(C)C)CSCCc2cc(nc(N)n2)CCSC[C@@H](C(=O)N[C@@H](CCCCN)C(=O)N[C@@H](CC(C)C)C(=O)N[C@@H](Cc2ccccc2)C(=O)N[C@@H](CO)C(=O)NCC(=O)O)NC(=O)[C@H](C)NC(=O)[C@H](CCCCN)NC(=O)[C@H](CCC(N)=O)NC1=O [SP24] (H-GSGFSTASGKKLNVSCQALQKACKLFSG-OH; linker 16-23 via X1) | 13 | 21 | depolymerise RAD51 from single-stranded DNA to similar extent |  | 
ACGFSTASGKKLNVSCEALQKAVKLFSDIENIS (also: sidechain bridge or staple (positions not given here)) [GB1-SP10, GB1/C-His8 fusion peptide stapled with DVT; unstapled column is its linear mock control] |  |  |  | 27 | 35
ACSGFSTASGKKLNCS (also: sidechain bridge or staple (positions not given here)) [GB1-SP16, GB1/C-His8 fusion peptide stapled with DVT; unstapled column is its linear mock control] |  |  |  | > 500 | > 500
H-GSVNSSAFSGFSTASGKKLNVSCEALQKACKLFSDIENISGSS-OH (linker 23-30 via X2) [SP2] |  |  | depolymerise RAD51 from single-stranded DNA to similar extent |  | 
SCEALQKACKLFSDIENIS (also: sidechain bridge or staple (positions not given here)) [GB1-SP1, GB1/C-His8 fusion peptide stapled with DVT; unstapled column is its linear mock control] |  |  |  | > 500 | > 500
SCFSTASGKKLNVSCEALQKAVKLFSDIENIS (also: sidechain bridge or staple (positions not given here)) [GB1-SP11, GB1/C-His8 fusion peptide stapled with DVT; unstapled column is its linear mock control] |  |  |  | 36 | 29
SSACSGFSTASGKKLNVSTEACQKAVKLFSDIENIS (also: sidechain bridge or staple (positions not given here)) [GB1-SP12, GB1/C-His8 fusion peptide stapled with DVT; unstapled column is its linear mock control] |  |  |  | 14 | 50
VNCSAFSGFSTASGKKLCVS (also: sidechain bridge or staple (positions not given here)) [GB1-SP14, GB1/C-His8 fusion peptide stapled with DVT; unstapled column is its linear mock control] |  |  |  | > 500 | > 500
VNCSAFSGFSTASGKKLNVSTEALCKAVKLFSDIENIS (also: sidechain bridge or staple (positions not given here)) [GB1-SP13, GB1/C-His8 fusion peptide stapled with DVT; unstapled column is its linear mock control] |  |  |  | 28 | 21
VNSSAFSGFCTASGKKLNVSCEALQKAVKLFSDIENIS (also: sidechain bridge or staple (positions not given here)) [GB1-SP7, negative control GB1/C-His8 fusion peptide stapled with DVT; unstapled column is its linear mock control] |  |  |  |  | 39
VNSSAFSGFSTASGKKLNVSCEALQKACKLFSDIECIS (also: sidechain bridge or staple (positions not given here)) [GB1-SP15, GB1/C-His8 fusion peptide stapled with DVT; unstapled column is its linear mock control] |  |  |  | 13 | 15
VNSSAFSGFSTASGKKLNVSCEALQKACKLFSDIENIS (also: sidechain bridge or staple (positions not given here)) [GB1-SP2, GB1/C-His8 fusion peptide stapled with DVT; unstapled column is its linear mock control] |  |  |  | 15 | 6
VNSSAFSGFSTASGKKLNVSTCALQKAVCLFSDIENIS (also: sidechain bridge or staple (positions not given here)) [GB1-SP8, GB1/C-His8 fusion peptide stapled with DVT; unstapled column is its linear mock control] |  |  |  | 29 | 45
VNSSAFSGFSTASGKKLNVSTEALCKAVKLFCDIENIS (also: sidechain bridge or staple (positions not given here)) [GB1-SP9, GB1/C-His8 fusion peptide stapled with DVT; unstapled column is its linear mock control] |  |  |  | 51 | 57
VNSSAFSGFSTASGKKLNVSTEALQKAVKLFSDIENIS [GB1-BRC8-2, linear BRC8-2 template as GB1/C-His8 fusion] |  |  |  |  | 11
